Experimental data as given in patent US20070227557A1, “THICKENED SURFACTANT-FREE CLEANSING AND MULTIFUNCTIONAL LIQUID COATING COMPOSITIONS CONTAINING NONREACTIVE ABRASIVE SOLID PARTICLES AND AN ORGANOSILANE QUATERNARY COMPOUND AND METHODS OF USING” (priority 2005, published 2007).

Test: Thickening / thixotropy of aqueous mixtures
Format: physicochemical
Settings: standard test formulation
Procedure: “thixotropic” or “thixotropically” means, with reference to a thickened composition, when applied to a vertical surface, it will cling until disturbed by wiping or massaging in biomechanical cleansing.
The sodium dodecylbenzene sulfonate base employed in Examples 34-46 was prepared as follows: 90.07% (Wt.) of deionized water was placed in the blender beaker and 1.104% sodium hydroxide pellets added and the mixture stirred until all sodium hydroxide dissolved. 8.826% of dodecylbenzene sulfonic acid (98% purity) was added slowly with good stirring until all the dodecylbenzene sulfonic acid dissolved (reacted with the sodium hydroxide). The pH of the resulting solution was […]. The final solution contained 9.42% sodium dodecylbenzene sulfonate. Approximately 450 gms of the base, containing 408 gms of water and 42.4 gms of the sodium dodecylbenzene sulfonate, were used in all the examples of TABLE VI. 124 gms of aluminum oxide grit (A2-325 and P-6 grades from Altmatis) were employed in the compositions of TABLE VI.
The alkyl alcohol ethoxylates were added slowly with good mixing employing a Silverson L4RT-A laboratory mixer with the pump head mixer. As the mixture thickened, addition of the alkyl alcohol ethoxylates was slowed until the thickened mixture had the consistency of whipped cream. If the desired thickening was achieved, it was so noted as “YES”, if not, it was noted as “NO”.

Compound	formation of stable thickened compositions
CCCCCCCCCCCCc1ccc(S(=O)(=O)[O-])cc1.[Na+] [sodium docecylbenzene sulfonate]	did form stable thickened compositions
CCCCCCCCCCCCS(=O)(=O)[O-].[Na+] [sodium lauryl (C12) sulfonate]	did not result in stable thickened compositions
CCCCCCCCS(=O)(=O)[O-].[Na+] [sodium octane sulfonate]	did not result in stable thickened compositions
sodium alkyl(C11-16) sulfonate	did not result in stable thickened compositions
